This note sets out measurements from patent US7022716B2, “Cyclic amine phenyl beta-3 adrenergic receptor agonists” (Wyeth, priority 2000, dated 2006).

T1 sequence (P13945 whole entry): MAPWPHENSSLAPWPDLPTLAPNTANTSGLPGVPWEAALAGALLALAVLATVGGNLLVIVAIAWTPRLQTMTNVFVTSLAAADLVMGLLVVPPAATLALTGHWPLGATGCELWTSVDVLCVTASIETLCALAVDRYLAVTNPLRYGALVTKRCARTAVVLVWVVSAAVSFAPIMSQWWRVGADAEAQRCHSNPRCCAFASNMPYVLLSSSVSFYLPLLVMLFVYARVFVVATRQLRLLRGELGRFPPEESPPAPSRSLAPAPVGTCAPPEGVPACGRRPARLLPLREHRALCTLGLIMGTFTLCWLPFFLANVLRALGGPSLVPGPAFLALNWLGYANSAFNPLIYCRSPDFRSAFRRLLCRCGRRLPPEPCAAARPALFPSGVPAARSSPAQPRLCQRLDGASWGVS

The test addresses T1, human β3 adrenergic receptor (Homo sapiens, UniProt P13945).
T1 construct: Full length β3 AR clones (402 amino acids) containing the last 6 amino acids of hβ3-AR are prepared; expressed in transfected cells; host or cells: CHO (Chinese hamster ovary) cells
Briefly: cAMP (SPA) response in CHO cells transfected with human β3 adrenergic receptor. Format: cell-based. On the set-up: key: fraction of maximal isoproterenol (10^-5 M) response. Particulars: maximal response relative to maximal response of isoproterenol at 10^-5 M. As to the method:
Binding to the receptors was measured in Chinese Hamster ovary (CHO) cells that were transfected with adrenergic receptors.
The corresponding primer sequences are described in Mantzoros, C. […] The four fragments are ligated into a pUC 18 plasmid (Gibco-BRL) and sequenced.
CHO cells were grown in 24-well tissue culture plates in Dulbecco's Modified Eagle Media with 10% fetal bovine serum, MEM non-essential amino acids, Penicillin-Streptompycin and Geneticin. On the day of test procedure, growth medium was replaced with preincubation media (Dulbecco's Modified Eagle, Media) and incubated for 30 minutes at 37° C. […] Test compounds were tested over a concentration range of 10^−9 M to 10^−5 M for β3 cells and 10^−8 to 10^−4 M for β1 and β2 transfected cells. Isoproterenol (10^−5 M) was used as an internal standard for comparison of activity. Cells were incubated at 37° C. on a rocker for 30 min with the β3 cells and 15 min for β1 and β2 cells. Incubation was stopped with the addition of 0.2N HCl and neutralized with 2.5N NaOH. The plates, containing the cells and neutralized media, were stored at −20 degrees celsius until ready to test for cAMP using the SPA test kit (Amersham).
Data Analysis and Results: Data collected from the SPA test procedure were analyzed as percent of the maximal isoproterenol response at 10^−5 M. Activity curves were plotted using the SAS statistical and graphics software.
Regarding `CCCCCCNC(=O)Nc1ccc(S(=O)(=O)Nc2ccc(N3CCC(NC[C@H](O)c4ccc(O)c(NS(C)(=O)=O)c4)CC3)cc2)cc1` [Example 276, 4-{[(Hexylamino)carbonyl]amino}-N-(4-{4-[((2R)-2-hydroxy-2-{4-hydroxy-3-[(methylsulfonyl)amino]phenyl}ethyl)amino]-1-piperidinyl}phenyl)benzenesulfonamide], the “IA(β3)” value is listed as 1.1. Then `O=c1[nH]c2cccc(OC[C@@H](O)CNC3CCN(c4ccc(NS(=O)(=O)c5ccc(-n6nnn(CCCC7CCCC7)c6=O)cc5)cc4)CC3)c2[nH]1` [Example 277], with 0.58; and `O=c1[nH]c2cccc(OC[C@@H](O)CNC3CCN(c4ccc(NS(=O)(=O)c5ccc(-c6ccccn6)s5)cc4)CC3)c2[nH]1` [Example 278, N-{4-[4-({(2S)-2-Hydroxy-3-[(2-oxo-2,3-dihydro-1H-benzimidazol-4-yl)oxy]propyl}-amino)-1-piperidinyl]phenyl}-5-(2-pyridinyl)-2-thiophenesulfonamide], with 1.04. Take `COc1ccc(S(=O)(=O)Nc2ccc(N3CCC(NC[C@H](O)COc4ccc(O)cc4)CC3)cc2)cc1OC` [Example 279, N-[4-(4-{[(2S)-2-Hydroxy-3-(4-hydroxyphenoxy)propyl]amino}-1-piperidinyl)phenyl]-3,4-dimethoxybenzenesulfonamide]: the “IA(β3)” value stood at 0.74. Then `COc1ccc(S(=O)(=O)Nc2ccc(N3CCC(NCC(O)c4ccc(O)c(NS(C)(=O)=O)c4)CC3)cc2)cc1OC` (centres unmarked) [Example 280, N-(4-{4-[(2-Hydroxy-2-{4-hydroxy-3-[(methylsulfonyl)amino]phenyl}ethyl)amino]-1-piperidinyl}phenyl)-3,4-dimethoxybenzenesulfonamide], with 1.16.

Consider `CCCCOc1ccc(S(=O)(=O)Nc2ccc(N3CCC(NCC(O)c4ccc(O)c(NS(C)(=O)=O)c4)CC3)cc2)cc1` (centres unmarked) [Example 281, 4-Butoxy-N-(4-{4-[2-hydroxy-2-(4-hydroxy-3-methanesulfonylamino-phenyl)-ethylamino]-piperidin-1-yl}-phenyl)-benzenesulfonamide], for which the “IA(β3)” value was determined as 1.14. Consider `CC(=O)Nc1ccc(S(=O)(=O)Nc2ccc(N3CCC(NC[C@H](O)COc4cccc5[nH]c6ccccc6c45)CC3)cc2)cc1` [Example 282, N-(4-{[4-(4-{[(2S)-3-(9H-Carbazol-4-yloxy)-2-hydroxypropyl]amino}-1-piperidinyl)-anilino]sulfonyl}phenyl)acetamide], for which the “IA(β3)” value was determined as 0.63. The value for `Cc1c(S(=O)(=O)Nc2ccc(N3CCC(NC[C@H](O)COc4cccc5[nH]c(=O)[nH]c45)CC3)cc2)sc2ccc(Cl)cc12` [Example 283, 5-Chloro-N-{4-[4-({(2S)-2-hydroxy-3-[(2-oxo-2,3-dihydro-1H-benzimidazol-4-yl)oxy]propyl}amino)-1-piperidinyl]phenyl}-3-methyl-1-benzothiophene-2-sulfonamide] was 0.81; that for `N#Cc1ccc(S(=O)(=O)Nc2ccc(N3CCC(NC[C@H](O)COc4cccc5[nH]c(=O)[nH]c45)CC3)cc2)cc1` [Example 284, 4-Cyano-N-{4-[4-({(2S)-2-hydroxy-3-[(2-oxo-2,3-dihydro-1H-benzimidazol-4-yl)oxy]propyl}amino)-1-piperidinyl]phenyl}benzenesulfonamide] was 0.87; that for `N#Cc1ccc(S(=O)(=O)N(c2ccc(N3CCC(NC[C@H](O)COc4cccc5[nH]c(=O)[nH]c45)CC3)cc2)S(=O)(=O)c2ccc(C#N)cc2)cc1` [Example 285, 4-Cyano-N-[(4-cyanophenyl)sulfonyl]-N-{4-[4-({(2S)-2-hydroxy-3-[(2-oxo-2,3-dihydro-1H-benzimidazol-4-yl)oxy]propyl}amino)-1-piperidinyl]phenyl}benzenesulfonamide] was 0.76. Then `O=c1[nH]c2cccc(OC[C@@H](O)CNC3CCN(c4ccc(NS(=O)(=O)c5sc(Cl)cc5Br)cc4)CC3)c2[nH]1` [Example 286, 3-Bromo-5-chloro-N-{4-[4-({(2S)-2-hydroxy-3-[(2-oxo-2,3-dihydro-1H-benzimidazol-4-yl)oxy]propyl}amino)-1-piperidinyl]phenyl}-2-thiophenesulfonamide], with 0.91; and `O=c1[nH]c2cccc(OC[C@@H](O)CNC3CCN(c4ccc(NS(=O)(=O)c5ccc(-c6ccon6)s5)cc4)CC3)c2[nH]1` [Example 287, N-{4-[4-({(2S)-2-Hydroxy-3-[(2-oxo-2,3-dihydro-1H-benzimidazol-4-yl)oxy]propyl}-amino)-1-piperidinyl]phenyl}-5-(3-isoxazolyl)-2-thiophenesulfonamide], with 0.92. Then `CS(=O)(=O)Nc1cc(C(O)CNC2CCN(c3ccc(NS(=O)(=O)c4ccc(-n5nnn(CCCC6CCCC6)c5=O)cc4)cc3)CC2)ccc1O` (centres unmarked) [Example 288, 4-[4-(3-Cyclopentyl-propyl)-5-oxo-4,5-dihydro-tetrazol-1-yl]-N-(4-{4-[2-hydroxy-2-(4-hydroxy-3-methanesulfonylamino-phenyl)-ethaylamino]-piperidin-1-yl}-phenyl)-benzenesulfonamide], with 1.24; and `CCCCOc1ccc(S(=O)(=O)Nc2ccc(N3CCC(NCC(O)COc4cccc5[nH]c6ccccc6c45)CC3)cc2)cc1` (centres unmarked) [Example 289, 4-Butoxy-N-(4-{4-[3-(9H-carbazol-4-yloxy)-2-hydroxy-propylamino]-piperidin-1-yl}-phenyl)-benzenesulfonamide], with 0.59; and `CCCCCCNC(=O)Nc1ccc(S(=O)(=O)Nc2ccc(N3CCC(NC[C@H](O)COc4cccc5[nH]c6ccccc6c45)CC3)cc2)cc1` [Example 290], with 0.72. Take `CC(=O)Nc1ccc(S(=O)(=O)Nc2ccc(N3CCC(NC[C@H](O)c4ccc(O)c(NS(C)(=O)=O)c4)CC3)cc2)cc1` [Example 291, N-{4-[(4-{4-[((2R)-2-Hydroxy-2-{4-hydroxy-3-[(methylsulfonyl)amino]-phenyl}ethyl)amino]-1-piperidinyl}anilino)sulfonyl]phenyl}acetamide]: the “IA(β3)” value is listed as 1.07.

On to `COc1ccc(S(=O)(=O)Nc2ccc(N3CCC(NC[C@H](O)COc4cccc5[nH]c6ccccc6c45)CC3)cc2)cc1OC` [Example 292, N-[4-(4-{[(2S)-3-(9H-Carbazol-4-yloxy)-2-hydroxypropyl]amino}-1-piperidinyl)phenyl]-3,4-dimethoxybenzenesulfonamide], for which the “IA(β3)” value is reported as 0.75. The value for `O=S(=O)(Nc1ccc(N2CCC(NC[C@H](O)COc3ccc(O)cc3)CC2)cc1)c1ccc(-c2ccccn2)s1` [Example 293, N-[4-(4-{[(2S)-2-Hydroxy-3-(4-hydroxyphenoxy)propyl]amino}-1-piperidinyl)phenyl]-5-(2-pyridinyl)-2-thiophenesulfonamide] was 0.94.

As to `CS(=O)(=O)Nc1cc(C(O)CNC2CCN(c3ccc(NS(=O)(=O)c4ccc(-c5ccccn5)s4)cc3)CC2)ccc1O` (centres unmarked) [Example 294, N-(4-{4-[(2-Hydroxy-2-{4-hydroxy-3-[(methylsulfonyl)amino]phenyl}ethyl)amino]-1-piperidinyl}phenyl)-5-(2-pyridinyl)-2-thiophenesulfonamide], the “IA(β3)” value is listed as 1.07. With `CCCCS(=O)(=O)Nc1ccc(N2CCC(NCC(O)c3ccc(O)c(NS(C)(=O)=O)c3)CC2)cc1` (centres unmarked) [Example 295, N-(4-{4-[(2-Hydroxy-2-{4-hydroxy-3-[(methylsulfonyl)amino]phenyl}ethyl)amino]-1-piperidinyl}phenyl)-1-butanesulfonamide], the “IA(β3)” value is 0.87.
